Consider two molecules from patent publication US7923425B2, “Low-foaming, acidic low-temperature cleaner and process for cleaning surfaces” (Henkel AG & Co. KGaA, priority 2006, dated 2011).

Several values for one entry are separate records, joined by “and”; a condition that tells them apart may be missing. Equal values may be shown once.

A short description of assay [1]: Cleaning test on soiled aluminum panels, mineral oil soil. Conditions: 0.05% alone in water, no matrix, 120° F., 90 seconds. The protocol: (§1) A series of commercially available cleaners as well as certain surfactants and related compounds in water, alone, without a builder matrix were tested for cleaning performance. The cleaning effectiveness of each cleaner composition was tested follows: • 1. Soiled aluminum panels, 1″×4″, were used as the test specimens. […] Mineral oil and corn oil, each modified by the addition of 10% graphite, were used as the soils for each screening. Soil patches on the aluminum were deposited immediately before testing.
(§2) The test specimens were cleaned by low-impingement, continuously circulated aqueous working baths to determine chemical cleaning strength. The test also screened for foaminess. The continuous circulation promoted foam formation. Cleaning effectiveness was evaluated gravimetrically and the percentage of oily contaminant removed by the formulation was calculated by comparing soil weights before and after cleaning. This technique is a common procedure in analytic chemistry and will be familiar to those of skill in the art. The results of these experiments are summarized in Tables 1 and 3 as percent reduction of soil.

A short description of assay [2]: Cleaning test on soiled aluminum panels, corn oil soil. Conditions: 0.05% alone in water, no matrix, 120° F., 90 seconds. The protocol: as §1, §2

Take `OCCOCCOCc1ccccc1` [Surfactant #7, benzyl alcohol ethoxylate, C6H5CH2—O—(CH2—CH2—O)n—H, n=2]: in assay [1], the “% reduction of soil, Min Oil, single panel” value is 98.9% and 100.0% (2×). In addition, the “% reduction of soil, Corn Oil, single panel” value in assay [2] is 92.2% and 92.0% and 91.6%.

As to tri(propylene glycol) propyl ether, the “% reduction of soil, Min Oil, single panel” value in assay [1] is 93.9% and 100.0% (2×). In assay [2], the “% reduction of soil, Corn Oil, single panel” value is 90.0% and 88.9% and 95.0%.
